The structures appear in SMILES notation. pIC50: −log10 of the molar value. Where two headings read alike, the source gives them in different places.

From US11472832B2, “Withanolides useful for the treatment of neurodegenerative diseases” (priority 2013, dated 2022) come the findings set out here.

In data set [1] the test system is NF-κB. Nature of the data set: TNF-α-induced signalling activity in HEK293-NF-κB-luciferase reporter cell line. It is filed as cell-based. The following applies: HEK-293 cells; for pIC50: TNF-alpha 40 ng/ml, 4 h, luciferase; for inhibition of NF-κB expression: TNF-alpha, 0.05 to 5 uM, FIG. 3. How it is done: Ten thousand hygromycin B-resistant HEK-293 cells were seeded per well in a 96-well plate (Corning, New-York) and allowed to adhere overnight. The next morning, the culture medium (DMEM+10% FBS) was removed and […] of fresh medium (DMEM without FBS) added to each well. […] Human recombinant TNF-alpha (R&D Systems, Minneapolis) was added one hour later at a final concentration of 40 ng/ml. Four hours later, the HEK-293 cells were rinsed with 1×PBS prior to the luciferase assay, which was performed according to the manufacturer's instructions (Bright-Glo™ luciferase assay system, Promega, Wis.).

For data set [2], the system named is NF-κB. Nature of the data set: NF-κB luciferase reporter activity in BV2 microglial cells stimulated with LPS. Type of data set: cell-based. The following applies: BV-2 cells, LPS 100 ng/ml, 4 h. How it is done:
An NF-κB specific luciferase reporter system in BV-2 microglial cells was first established. This cell line was generated by stable transfection of BV-2 cells with stable insertion of a luciferase reporter 4 kBwt luciferase plasmid and subsequent selection with hygomycin. LPS was used to stimulate NF-κB activity in these cells. Twenty-five thousand hygromycin B-resistant BV-2 cells were seeded per well in 24-well dishes and allowed to adhere overnight. The next morning, the culture medium (DMEM+10% FBS) was removed and 1 ml of fresh medium (DMEM without FBS) added to each well. The stock solutions of withanolides (2 mg/ml in DMSO) were diluted in 1×PBS to various concentration (0.05 to 5 uM) and added to the wells. LPS was added one hour later at a final concentration of 100 ng/ml. Four hours later, the BV-2 cells were rinsed with 1×PBS prior to proceeding with the luciferase assay that was performed according to the manufacturer's instructions (Bright-Glo™ luciferase assay system, Promega, Wis.).

Data set [3] deals with TDP-43 A315T transgenic mice. The settings on record: 5 mg/kg i.p. every 2 days for 15 weeks. How it is done: The TDP-43 A315T mouse model for ALS is fully described in Swamp, V et al., Brain 134: 2610-2626 2011.
Male and female TDP-43 A315T mice of approximately 9 months and 25-55 gm were included in the study, and were randomly assigned to three groups, as follows:
Group 2 (n=7) (the control group) received vehicle (2% polysorbate [Tween-80]/5% DMSO/93% saline); and
The injection volume at 12.5 mL/kg was based on the body weight of each individual animal at the start of the study.
Accelerating rotarod (as described in Gros-Louis, F., et al. Hum Mol Genet 17, 2691-2702 (2008)) was performed prior to first dosing and at weekly interval during the study. Testing was performed at 4-rpm speed with 0.25 rpm/s acceleration. Each mouse was subjected to three trials per session. The number of seconds each mouse remained on the rotarod apparatus for each trial was recorded.

For data set [4], the system named is LPS-induced astrogliosis (GFAP promoter luciferase reporter). The settings on record: GFAP-luc mice, LPS inhaled, 4 mg/kg i.p. 2 h after LPS and 2 h before imaging, imaging 24 h after LPS.
Method: In vivo bioluminescence imaging was performed to asses the inflammatory response in the cranial region.
GFAP-luc transgenic mice were used to test in vivo the efficacy of these analogs. In these transgenic mice, the firefly luciferase reporter gene is under the control of a 12 kb DNA fragment of the glial fibrillary acidic protein (GFAP) promoter (Caliper Life Sciences). The luciferase reporter is inducible following LPS administration resulting in GFAP transcriptional regulation. If the administration of test compounds following the injection of LPS decreases LPS-induced astrogliosis in GFAP-luc mice, this is visualized as a reduced bioluminescent signal upon imaging.
Transgenic mice under anesthesia were induced to inhale either 5 ul of a solution of LPS (1 mg/ml in 0.9% saline) or a solution of 0.9% saline alone followed 2 h later by an intraperitoneal (i.p.) injection of 0.5 ml of the test compounds (10% dilution in 0.9% saline) at a final concentration of 4 mg/kg. The following day, 2 h before imaging (24 h after the administration of the LPS solution), the transgenic mice were again injected with the withanolides as previously. Twenty minutes prior to imaging, the mice received an i.p. injection of the luciferase substrate D-luciferin (150 mg/kg). D-luciferin was dissolved in 0.9% saline to a final concentration of 20 mg/ml. […]
Data set [5] concerns C57BL/6 female mice. The settings on record: i.p.; for clinical observations post-dosing: 65 mg/kg; for safety profile compared with WA: 20 to 65 mg/kg.

Turning to `COCC1=C(C)C[C@H]([C@@H](C)[C@H]2CC[C@H]3[C@@H]4C[C@H]5O[C@]56[C@@H](OC)C=CC(=O)[C@]6(C)[C@H]4CC[C@]23C)OC1=O` [4,27-O-dimethyl WA, 4,27-O-dimethylwithaferin A], in data set [1], the pIC50 was 6.35 and the “inhibition of NF-κB expression” value is given as “inhibited NF-κB expression”. Further, the pIC50 in data set [2] was 6.10.
`CO[C@H]1C=CC(=O)[C@]2(C)[C@H]3CC[C@]4(C)[C@@H]([C@H](C)[C@H]5CC(C)=C(CO)C(=O)O5)CC[C@H]4[C@@H]3C[C@H]3O[C@]132` [4-O-methyl WA, 4-O-methylwithaferin A]: in data set [1], the pIC50 is 6.49 and the “inhibition of NF-κB expression” value is reported as “inhibited NF-κB expression”. The pIC50 in data set [2] is 6.01. Also, in data set [3], the “rotarod performance over the 15 week period” value is on record as “improved”. Besides, in data set [4], the “bioluminescent signal in brain (astrogliosis) compared to saline-DMSO” value was “significant decrease”. Besides, in data set [5] (55 mg/kg), the mortality entry is given as “no mortality”. In addition, in data set [5], the clinical observations post-dosing result was “some weakness and a decrease in activity”; the “safety profile compared with WA” value was “much better safety profile than WA”. Further, in data set [5] (65 mg/kg (highest dose tested)), the mortality result is listed as “no mortality”.
For the molecule `COCC1=C(C)C[C@H]([C@@H](C)[C@H]2CC[C@H]3[C@@H]4C[C@H]5O[C@]56[C@@H](O)C=CC(=O)[C@]6(C)[C@H]4CC[C@]23C)OC1=O` [27-O-methyl WA, 27-O-methylwithaferin A], in data set [1], the pIC50 is 6.59 and the “inhibition of NF-κB expression” value was “inhibited NF-κB expression”. The same molecule gave a pIC50 in data set [2] of 6.15. For the same molecule, the “rotarod performance over the 15 week period” value in data set [3] was “improved”. Besides, the “bioluminescent signal in brain (astrogliosis) compared to saline-DMSO” value in data set [4] was “significant decrease”. The mortality result in data set [5] (55 mg/kg) is “no mortality”. Besides, in data set [5], the clinical observations post-dosing result was “some weakness and a decrease in activity”; the “safety profile compared with WA” value is on record as “much better safety profile than WA”. Moreover, the mortality entry in data set [5] (65 mg/kg (highest dose tested)) is listed as “no mortality”.
With `CC1=C(CO)C(=O)O[C@@H]([C@@H](C)[C@H]2CC[C@H]3[C@@H]4C[C@H]5O[C@]56[C@@H](O)C=CC(=O)[C@]6(C)[C@H]4CC[C@]23C)C1` [WA, Withaferin A, reference compound], the pIC50 was 6.47 in data set [1] (Homo sapiens, HEK293) and 6.30 in data set [2] (Mus musculus).
